Data reported in US5336673A, “3-substituted cephem compounds” (priority 1990, dated 1994).
In brackets after ≈: the same amount, converted by molar mass. Read-outs that look alike come from different tables or passages of the source.

How the values were obtained:
Format in all cases: cell-based
[1] = tested on: Pseudomonas aeruginosa 1771M; test: Antibacterial activity, MIC by Agar dilution method, standard test strain 15; conditions: 18 h
Description: (§1) The antibacterial activity was determined by an Agar dilution method as described below.
(§2) That is, the two-fold serial dilutions of the antibacterial compounds (1000 μg compound/ml) were prepared and dispersed in Muller Hinton Agar in a petri dish to a concentration of 100~0.002 μg/ml. The culture broths of standard test strains were inoculated on the medium to a concentration 10^7 CFU/ml, and incubated at 37° C. for 18 hours. The concentration of compounds(I) at which the strains were not grown was regarded as minimum inhibition concentration (MIC).
(§3) The results of antibacterial activity test of the representative examples of the compound (I) against 20 standard test strains shown in terms of MIC were indicated in Table 1.
15. Pseudomonas aeruginosa 1771M

[2] = tested on: Pseudomonas aeruginosa 1592E; test: Antibacterial activity, MIC by Agar dilution method, standard test strain 13; conditions: 10^7 CFU/ml, 37° C., 18 hours
Description: as §1, §2, §3
13. Pseudomonas aeruginosa 1592E

[3] = tested on: Escherichia coli TEM; test: Antibacterial activity, MIC by Agar dilution method, standard test strain 10; conditions: Escherichia coli TEM; 10^7 CFU/ml, 37° C., 18 hours; read-out: MIC
Description: as §1, §2, §3

[4] = tested on: Gram-positive strains as well as Gram-negative strains including Pseudomonas; test: Antibacterial activity (summary in words); conditions: Gram-positive and Gram-negative strains
Description: as §1, §2

[5] = tested on: Escherichia coli 1507E; test: Antibacterial activity, MIC by Agar dilution method, standard test strain 11; conditions: Escherichia coli 1507E; 10^7 CFU/ml, 37° C., 18 hours; read-out: MIC
Description: as §1, §2, §3

[6] = tested on: Escherichia coli DC O; test: Antibacterial activity, MIC by Agar dilution method, standard test strain 8
Description: as §1, §2, §3

[7] = tested on: Streptococcus pyogenes A 77; test: Antibacterial activity, MIC by Agar dilution method, standard test strain 2; conditions: A77, 10^7 CFU/ml, 37° C., 18 hours
Description: as §1, §2, §3
2. Streptococcus pyogenes A 77

[8] = tested on: Streptococcus faecium MD 86; test: Antibacterial activity, MIC by Agar dilution method, standard test strain 3; conditions: Enterococcus faecium, MD86, 10^7 CFU/ml, 37° C., 18 hours
Description: as §1, §2, §3
3. Streptococcus faecium MD 86

[9] = tested on: Streptococcus pyogenes A 308; test: Antibacterial activity, MIC by Agar dilution method, standard test strain 1; conditions: A308, 10^7 CFU/ml, 37° C., 18 hours
Description: as §1, §2, §3
1. Streptococcus pyogenes A 308

[10] = tested on: Escherichia coli DC 2; test: Antibacterial activity, MIC by Agar dilution method, standard test strain 9; conditions: DC2; Escherichia coli DC 2; 10^7 CFU/ml, 37° C., 18 hours; read-out: MIC
Description: as §1, §2, §3

[11] = tested on: Klebsiella oxytoca 1082E; test: Antibacterial activity, MIC by Agar dilution method, standard test strain 17; conditions: 10^7 CFU/ml, 37° C., 18 hours
Description: as §1, §2, §3

[12] = tested on: Enterobacter cloacae P99; test: Antibacterial activity, MIC by Agar dilution method, standard test strain 19; conditions: P99, 18 h
Description: as §1, §2, §3
19. Enterobacter cloacae P99

[13] = tested on: Klebsiella aerogenes 1522E; test: Antibacterial activity, MIC by Agar dilution method, standard test strain 18; conditions: Klebsiella aerogenes 1522E; 10^7 CFU/ml, 37° C., 18 hours; read-out: MIC
Description: as §1, §2, §3
18. Klebsiella aerogenes 1522E

[14] = tested on: Staphyloccus aureus 285; test: Antibacterial activity, MIC by Agar dilution method, standard test strain 5; conditions: 10^7 CFU/ml, 37° C., 18 hours
Description: as §1, §2, §3
5. Staphyloccus aureus 285

[15] = tested on: Enterobacter cloacae 1321E; test: Antibacterial activity, MIC by Agar dilution method, standard test strain 20; conditions: Enterobacter cloacae 1321E; 10^7 CFU/ml, 37° C., 18 hours; read-out: MIC
Description: as §1, §2, §3
20. Enterobacter cloacae 1321E

[16] = tested on: Pseudomonas aeruginosa 9027; test: Antibacterial activity, MIC by Agar dilution method, standard test strain 12; conditions: 10^7 CFU/ml, 37° C., 18 hours
Description: as §1, §2, §3
12. Pseudomonas aeruginosa 9027

[17] = tested on: Salmonella typhimurium; test: Antibacterial activity, MIC by Agar dilution method, standard test strain 16; conditions: Salmonella enterica, 10^7 CFU/ml, 37° C., 18 hours
Description: as §1, §2, §3
16. Salmonella typhimurium

[18] = tested on: Staphylococcus aureus SG 511; test: Antibacterial activity, MIC by Agar dilution method, standard test strain 4; conditions: SG511, 10^7 CFU/ml, 37° C., 18 hours
Description: as §1, §2, §3
4. Staphylococcus aureus SG 511

[19] = tested on: Escherichia coli O 55; test: Antibacterial activity, MIC by Agar dilution method, standard test strain 7
Description: as §1, §2, §3

[20] = tested on: Pseudomonas aeruginosa 1771; test: Antibacterial activity, MIC by Agar dilution method, standard test strain 14; conditions: 10^7 CFU/ml, 37° C., 18 hours
Description: as §1, §2, §3
14. Pseudomonas aeruginosa 1771

[21] = tested on: Staphylococcus aureus 503; test: Antibacterial activity, MIC by Agar dilution method, standard test strain 6; conditions: 10^7 CFU/ml, 37° C., 18 hours
Description: as §1, §2, §3
6. Staphylococcus aureus 503

[22] = Escherichia coli DC O, 10^7 CFU/ml, 37° C., 18 hours, read-out: MIC

CO/N=C(\C(=O)N[C@@H]1C(=O)N2C(C(=O)[O-])=C(C[N+]3(N)CCCC3)CS[C@H]12)c1csc(N)n1 [Example 1, (6R,7R)-7-[(Z)-2-(2-aminothiazol-4-yl)-2-methoxyiminoacetamido]-3-(1-aminopyrrolidiniummethyl)ceph-3-em-4-carboxylate]
MIC [1]: 3.12 µg/mL (≈ 6.49 µM) | MIC [2]: 100 µg/mL (≈ 208 µM) | MIC [3]: 0.391 µg/mL (≈ 0.812 µM) | antibacterial activity (in words) [4]: excellent antibacterial activity | MIC [5]: 0.391 µg/mL (≈ 0.812 µM) | MIC [6, 22]: 0.195 µg/mL (≈ 0.405 µM) | MIC [7]: 0.025 µg/mL (≈ 0.0519 µM) | MIC [8]: > 100 µg/mL | MIC [9]: 0.025 µg/mL (≈ 0.0519 µM) | MIC [10]: 0.391 µg/mL (≈ 0.812 µM) | MIC [11]: 12.5 µg/mL (≈ 26 µM) | MIC [12]: > 100 µg/mL | MIC [13]: 0.195 µg/mL (≈ 0.405 µM) | MIC [14]: 12.5 µg/mL (≈ 26 µM) | MIC [15]: 0.098 µg/mL (≈ 0.204 µM) | MIC [16]: 100 µg/mL (≈ 208 µM) | MIC [17]: 0.781 µg/mL (≈ 1.62 µM) | MIC [18]: 6.26 µg/mL (≈ 13 µM) | MIC ([19]; Escherichia coli, O55, 18 h): 0.195 µg/mL (≈ 0.405 µM) | MIC [20]: 50 µg/mL (≈ 104 µM) | MIC [21]: 1.56 µg/mL (≈ 3.25 µM)

CO/N=C(\C(=O)N[C@@H]1C(=O)N2C(C(=O)[O-])=C(C[N+]3(N)CCc4ccccc4C3)CS[C@H]12)c1csc(N)n1 (stereo partly drawn) [Example 5, (6R,7R)-7-[(Z)-2-(2-aminothiazol-4-yl)-2-methoxyiminoacetamido]-3-[(2-amino-1,2,3,4-tetrahydroisoquinolin-2-ium)methyl]-ceph-3-em-4-carboxylate]
MIC [1]: 1.56 µg/mL (≈ 2.88 µM) | MIC [2]: 50 µg/mL (≈ 92 µM) | MIC [3]: 0.781 µg/mL (≈ 1.44 µM) | antibacterial activity (in words) [4]: excellent antibacterial activity | MIC [5]: 0.781 µg/mL (≈ 1.44 µM) | MIC [6, 22]: 0.391 µg/mL (≈ 0.719 µM) | MIC [7]: 0.013 µg/mL (≈ 0.0239 µM) | MIC [8]: 50 µg/mL (≈ 92 µM) | MIC [9]: 0.049 µg/mL (≈ 0.0901 µM) | MIC [10]: 0.781 µg/mL (≈ 1.44 µM) | MIC [11]: 12.5 µg/mL (≈ 23 µM) | MIC [12]: 100 µg/mL (≈ 184 µM) | MIC [13]: 0.013 µg/mL (≈ 0.0239 µM) | MIC [14]: 6.25 µg/mL (≈ 11.5 µM) | MIC [15]: 0.013 µg/mL (≈ 0.0239 µM) | MIC [16]: 50 µg/mL (≈ 92 µM) | MIC [17]: 0.781 µg/mL (≈ 1.44 µM) | MIC [18]: 1.56 µg/mL (≈ 2.88 µM) | MIC ([19]; Escherichia coli, O55, 18 h): 0.391 µg/mL (≈ 0.719 µM) | MIC [20]: 50 µg/mL (≈ 92 µM) | MIC [21]: 0.781 µg/mL (≈ 1.44 µM)

CO/N=C(\C(=O)N[C@@H]1C(=O)N2C(C(=O)[O-])=C(CN3CC[N+](C)(N)CC3)CS[C@H]12)c1csc(N)n1 [Example 11, (6R,7R)-7-[(Z)-2-(2-aminothiazol-4-yl)-2-methoxyiminoacetamido]-3-[(1-amino-1-methyl-4-piperazinium)methyl]-ceph-3-em-4-carboxylate]
MIC [1]: 1.56 µg/mL (≈ 3.06 µM) | MIC [2]: 50 µg/mL (≈ 97.9 µM) | MIC [3]: 0.391 µg/mL (≈ 0.766 µM) | antibacterial activity (in words) [4]: excellent antibacterial activity | MIC [5]: 0.781 µg/mL (≈ 1.53 µM) | MIC ([6]; Escherichia coli, 18 h): 0.781 µg/mL (≈ 1.53 µM) | MIC [7]: 0.007 µg/mL (≈ 0.0137 µM) | MIC [8]: > 100 µg/mL | MIC [9]: 0.013 µg/mL (≈ 0.0255 µM) | MIC [10]: 0.781 µg/mL (≈ 1.53 µM) | MIC [11]: 6.25 µg/mL (≈ 12.2 µM) | MIC [12]: 100 µg/mL (≈ 196 µM) | MIC [13]: 0.391 µg/mL (≈ 0.766 µM) | MIC [14]: 12.5 µg/mL (≈ 24.5 µM) | MIC [15]: 0.195 µg/mL (≈ 0.382 µM) | MIC [16]: 50 µg/mL (≈ 97.9 µM) | MIC [17]: 0.391 µg/mL (≈ 0.766 µM) | MIC [18]: 1.56 µg/mL (≈ 3.06 µM) | MIC ([19]; O55, Escherichia coli O 55, 10^7 CFU/ml, 37° C., 18 hours, read-out: MIC): 0.195 µg/mL (≈ 0.382 µM) | MIC [20]: 25 µg/mL (≈ 49 µM) | MIC [21]: 0.781 µg/mL (≈ 1.53 µM)
